Key:
[1] = Antioxidant activity assessed as DPPH radical scavenging activity at 100 uM after 240 mins by UV spectrophotometer relative to control; format: functional
[2] = molecular target: Aldo-keto reductase family 1 member B1 (Rattus norvegicus, UniProt P07943); assay: Inhibition of rat lens ALR2 using D,L-glyceraldehyde as substrate assessed as decrease in NADPH oxidation preincubated for 10 mins followed by substrate addition measured for 4 mins by spectrophotometer
[3] = Antioxidant activity assessed as DPPH radical scavenging activity at 10 uM after 240 mins by UV spectrophotometer relative to control; format: functional
[4] = Antioxidant activity assessed as DPPH radical scavenging activity at 50 uM after 240 mins by UV spectrophotometer relative to control; format: functional

IC50 [2] | Structure (SMILES) | Activity [1] | Activity [3] | Activity [4]
179 nM | COc1ccc2nc(-c3ccc(O)cc3O)c(=O)n(CC(=O)O)c2c1 | 37.2% | – | –
508 nM | COc1ccc2nc(CCc3ccc(O)cc3)c(=O)n(CC(=O)O)c2c1 | 20.7% | – | –
159 nM | O=C(O)Cn1c(=O)c(/C=C/c2ccc(O)c(O)c2)nc2cc(O)ccc21 | 90.4% | 64.2% | 77.8%
273 nM | COc1ccc2c(c1)nc(-c1c(O)cc(O)cc1O)c(=O)n2CC(=O)O | 68.7% | 36.4% | 53.7%
1300 nM | COc1ccc2nc(CCc3ccccc3)c(=O)n(CC(=O)O)c2c1 | – | – | –
5310 nM | COc1ccc2nc(-c3ccccc3)c(=O)n(CC(=O)O)c2c1 | – | – | –
847 nM | COc1ccc2nc(CCc3ccc(O)c(OC)c3)c(=O)n(CC(=O)O)c2c1 | 28.3% | – | –
983 nM | COc1ccc2c(c1)nc(CCc1ccc(O)c(OC)c1)c(=O)n2CC(=O)O | 31.9% | – | –
185 nM | COc1ccc2c(c1)nc(/C=C/c1ccc(O)c(OC)c1)c(=O)n2CC(=O)O | 74.9% | 39.7% | 61.4%
924 nM | COc1ccc2nc(/C=C/c3ccccc3)c(=O)n(CC(=O)O)c2c1 | – | – | –
3410 nM | COc1ccc2nc(-c3cccc(O)c3)c(=O)n(CC(=O)O)c2c1 | 8.5% | – | –
– | Cc1c(C)c2c(c(C)c1O)CCC(C)(C(=O)O)O2 (stereo not given) | 96.5% | 89.3% | 92.7%
98 nM | COc1ccc2c(c1)nc(/C=C/c1ccc(O)cc1)c(=O)n2CC(=O)O | 51.8% | – | 27.6%
3950 nM | O=C(O)Cn1c(=O)c(-c2ccccc2)nc2ccc(O)cc21 | 19.1% | – | –
6820 nM | COc1ccc2c(c1)nc(-c1ccccc1)c(=O)n2CC(=O)O | – | – | –
59 nM | COc1ccc2nc(/C=C/c3ccc(O)cc3)c(=O)n(CC(=O)O)c2c1 | 59.2% | – | 34.3%
102 nM | O=C(O)Cn1c(=O)c(/C=C/c2ccc(O)c(O)c2)nc2ccc(O)cc21 | 96.2% | 70.5% | 82.1%
2080 nM | COc1ccc2nc(-c3ccc(O)cc3)c(=O)n(CC(=O)O)c2c1 | 12.3% | – | –
865 nM | COc1ccc2nc(-c3cc(O)ccc3O)c(=O)n(CC(=O)O)c2c1 | 25.4% | – | –
4290 nM | O=C(O)Cn1c(=O)c(-c2ccccc2)nc2cc(O)ccc21 | 15.8% | – | –
210 nM | COc1ccc2nc(/C=C/c3ccc(O)c(OC)c3)c(=O)n(CC(=O)O)c2c1 | 83.5% | 42.2% | 65.9%
116 nM | COc1ccc2nc(-c3c(O)cc(O)cc3O)c(=O)n(CC(=O)O)c2c1 | 80.6% | 40.6% | 69.3%

— ChEMBL document CHEMBL4002625, “Synthesis and structure-activity relationship studies of phenolic hydroxyl derivatives based on quinoxalinone as aldose reductase inhibitors with antioxidant activity” (Bioorg Med Chem Lett, 2017)
